Patent publication US10563263B2, “Genetic polymorphisms associated with statin response and cardiovascular diseases, methods of detection and uses thereof” (CELERA CORPORATION, priority 2010, dated 2020)

Test system: CHD
Experiment: Meta-analysis of CARE and WOSCOPS combined, synergy index, CHD endpoint
Type: in vivo, human
Excerpt: Tables 4-5 provide meta-analyses of CARE and WOSCOPS combined (2nd section of each table) for two endpoints (CHD and CVD) and three genetic models (dominant, recessive, and additive), as well as logistic regression analyses of CARE (3rd section of each table) and WOSCOPS (4th section of each table) individually.
Tables 12 and 17 provide results of meta-analysis of the CARE and WOSCOPS sample sets combined by direct genotyping and by imputing genotypes.
“P” indicates the p-value, and “P(R)” (or “P.R.”) indicates the p-value random effect. Both of these are p-values corresponding to a statistical test of whether the combined synergy index is equal to one but use different assumptions to derive the p-value. “P” is calculated using a fixed effects model, and “P(R)” is calculated using a random effects model.
“OR” indicates the odds ratio (synergy index) calculated from a fixed effects model, and “OR(R)” (or “OR.R.”) indicates the odds ratio (synergy index) calculated from a random effects model.

[1] = rs10105871 allele C DOMINANT Imputed
[2] = rs10116807 allele A GENOTYPIC Imputed
[3] = rs11178575 allele C GENOTYPIC Imputed
[4] = rs11178575 allele C RECESSIVE Imputed
[5] = rs11178577 allele T GENOTYPIC Imputed
[6] = rs11178577 allele T RECESSIVE Imputed
[7] = rs11178583 allele A DOMINANT Imputed
[8] = rs11178589 allele T DOMINANT Imputed
[9] = rs11178594 allele C DOMINANT Imputed
[10] = rs11178602 allele T DOMINANT Imputed
[11] = rs11178648 allele T DOMINANT Imputed
[12] = rs11198877 allele T DOMINANT Imputed
[13] = rs11198942 allele T DOMINANT Imputed
[14] = rs11221075 allele A ADDITIVE Imputed
[15] = rs11242020 allele T DOMINANT Imputed
[16] = rs11242021 allele T DOMINANT Imputed
[17] = rs11242022 allele T DOMINANT Imputed
[18] = rs11242023 allele T DOMINANT Imputed
[19] = rs11576627 allele T ADDITIVE Imputed
[20] = rs11576627 allele T DOMINANT Imputed
[21] = rs11602189 allele A DOMINANT Imputed
[22] = rs11605163 allele A DOMINANT Imputed
[23] = rs11615214 allele G ADDITIVE Imputed
[24] = rs11615214 allele G GENOTYPIC Imputed
[25] = rs11642394 allele C DOMINANT Imputed
[26] = rs11644943 allele A ADDITIVE Imputed
[27] = rs11656608 allele T DOMINANT Imputed
[28] = rs11661309 allele A ADDITIVE Imputed
[29] = rs11661309 allele A DOMINANT Imputed
[30] = rs11666131 allele A ADDITIVE Imputed
[31] = rs11743355 allele C ADDITIVE Imputed
[32] = rs11743355 allele C DOMINANT Imputed
[33] = rs11746806 allele T ADDITIVE Imputed
[34] = rs11746806 allele T DOMINANT Imputed
[35] = rs11746959 allele T ADDITIVE Imputed
[36] = rs11746959 allele T DOMINANT Imputed
[37] = rs11749272 allele T DOMINANT Imputed
[38] = rs11901899 allele A DOMINANT Imputed
[39] = rs11926319 allele G ADDITIVE Imputed
[40] = rs11926319 allele G DOMINANT Imputed
[41] = rs11956952 allele C DOMINANT Imputed
[42] = rs12025826 allele G DOMINANT Imputed
[43] = rs12153185 allele T DOMINANT Imputed
[44] = rs12182651 allele T ADDITIVE Imputed
[45] = rs12182651 allele T DOMINANT Imputed
[46] = rs12193568 allele G DOMINANT Imputed
[47] = rs12264914 allele C DOMINANT Imputed
[48] = rs12307767 allele C DOMINANT Imputed
[49] = rs12407412 allele C ADDITIVE Imputed
[50] = rs12407412 allele C DOMINANT Imputed
[51] = rs12420184 allele G DOMINANT Imputed
[52] = rs12422750 allele A DOMINANT Imputed
[53] = rs12446951 allele A ADDITIVE Imputed
[54] = rs12446951 allele A DOMINANT Imputed
[55] = rs12457400 allele G DOMINANT Imputed
[56] = rs12521291 allele G ADDITIVE Imputed
[57] = rs12526849 allele T ADDITIVE Imputed
[58] = rs12526849 allele T GENOTYPIC Imputed
[59] = rs12543110 allele G DOMINANT Imputed
[60] = rs12678600 allele A DOMINANT Imputed
[61] = rs12719415 allele T DOMINANT Imputed
[62] = rs12831292 allele G DOMINANT Imputed

CC[C@H](C)C(=O)O[C@H]1C[C@H](O)C=C2C=C[C@H](C)[C@H](CC[C@@H](O)C[C@@H](O)CC(=O)O)[C@H]21 [Pravastatin, pravastatin]
OR(R) (rs10067895 allele A DOMINANT Imputed): 0.5759
Meta-analysis OR (rs10088505 allele A vs G (ref)): 1.61
Meta-analysis OR (rs10088524, allele A1 G (non-ref), A2 A (ref), endpoint/model not given): 1.57
Meta-analysis OR (rs10103297, allele A1 A (non-ref), A2 G (ref), endpoint/model not given): 2.03
OR [1]: 1.6092
OR(R) [1]: 1.6092
OR [2]: 3.0952
OR(R) [2]: 3.0952
Meta-analysis OR (rs10120126 allele G vs A (ref)): 0.51
Meta-analysis OR (rs10189905 allele C vs A (ref)): 0.52
Meta-analysis OR (rs10500736 allele G vs A (ref)): 0.57
Meta-analysis OR (rs10517923 allele A vs G (ref)): 1.61
Meta-analysis OR (rs10814422 allele G vs A (ref)): 0.57
Meta-analysis OR (rs10849442 allele A vs G (ref)): 0.57
Meta-analysis OR (rs10875941, allele A1 G (non-ref), A2 A (ref), endpoint/model not given): 0.63
Meta-analysis OR (rs10973013 allele A vs G (ref)): 0.55
Meta-analysis OR (rs11076320 allele C vs A (ref)): 0.65
Meta-analysis OR (rs11082492 allele A vs C (ref)): 1.55
OR [3]: 1.8735
OR(R) [3]: 1.8735
OR [4]: 1.8848
OR(R) [4]: 1.8848
OR [5]: 1.87
OR(R) [5]: 1.87
OR [6]: 1.8884
OR(R) [6]: 1.8884
OR [7]: 0.5918
OR(R) [7]: 0.5918
OR [8]: 0.6108
OR(R) [8]: 0.6108
OR [9]: 0.5951
OR(R) [9]: 0.5951
OR [10]: 0.5942
OR(R) [10]: 0.5942
OR [11]: 0.576
OR(R) [11]: 0.576
OR [12]: 1.6068
OR(R) [12]: 1.5927
OR [13]: 1.6276
OR(R) [13]: 1.6227
OR [14]: 0.6561
OR(R) [14]: 0.6561
OR [15]: 0.5675
OR(R) [15]: 0.5675
OR [16]: 0.5753
OR(R) [16]: 0.5753
OR [17]: 0.5805
OR(R) [17]: 0.5805
OR [18]: 0.5807
OR(R) [18]: 0.5807
OR [19]: 1.6268
OR(R) [19]: 1.6268
OR [20]: 1.7055
OR(R) [20]: 1.7055
OR [21]: 0.6007
OR(R) [21]: 0.6007
OR [22]: 2.1075
OR(R) [22]: 2.1075
OR [23]: 0.6853
OR(R) [23]: 0.6853
OR [24]: 0.4648
OR(R) [24]: 0.4738
OR [25]: 1.4572
OR(R) [25]: 1.4572
OR [26]: 1.4247
OR(R) [26]: 1.4247
OR [27]: 0.6695
OR(R) [27]: 0.6695
OR [28]: 0.6163
OR(R) [28]: 0.6163
OR [29]: 0.5852
OR(R) [29]: 0.5852
OR [30]: 1.5364
OR(R) [30]: 1.5364
OR [31]: 0.1796
OR(R) [31]: 0.1796
OR [32]: 0.1817
OR(R) [32]: 0.1817
OR [33]: 0.2206
OR(R) [33]: 0.2206
OR [34]: 0.2253
OR(R) [34]: 0.2253
OR [35]: 0.1976
OR(R) [35]: 0.1976
OR [36]: 0.2007
OR(R) [36]: 0.2007
OR [37]: 0.5734
OR(R) [37]: 0.5734
OR [38]: 1.5824
OR(R) [38]: 1.5824
Meta-analysis OR (rs11925875 allele A vs G (ref)): 0.66
OR [39]: 0.4343
OR(R) [39]: 0.4343
OR [40]: 0.4237
OR(R) [40]: 0.4237
OR [41]: 0.6564
OR(R) [41]: 0.6564
OR [42]: 1.5794
OR(R) [42]: 1.5794
OR [43]: 0.5759
OR(R) [43]: 0.5759
OR [44]: 2.1926
OR(R) [44]: 2.1926
OR [45]: 2.4795
OR(R) [45]: 2.4795
OR [46]: 1.7403
OR(R) [46]: 1.8042
OR [47]: 0.6442
OR(R) [47]: 0.6442
OR [48]: 0.6667
OR(R) [48]: 0.6667
OR [49]: 1.6268
OR(R) [49]: 1.6268
OR [50]: 1.7055
OR(R) [50]: 1.7055
OR [51]: 0.5645
OR(R) [51]: 0.5645
OR [52]: 0.6919
OR(R) [52]: 0.6919
OR [53]: 2.3413
OR(R) [53]: 2.3413
OR [54]: 2.3135
OR(R) [54]: 2.3135
OR [55]: 0.5884
OR(R) [55]: 0.5884
OR [56]: 0.6857
OR(R) [56]: 0.6857
OR [57]: 1.4208
OR(R) [57]: 1.4208
OR [58]: 2.0445
OR(R) [58]: 2.0445
OR [59]: 1.6401
OR(R) [59]: 1.6401
Meta-analysis OR (rs12556591 allele G vs A (ref)): 0.59
Meta-analysis OR (rs12657484, allele A1 G (non-ref), A2 A (ref), endpoint/model not given): 1.49
OR [60]: 0.6104
OR(R) [60]: 0.6104
OR [61]: 0.5662
OR(R) [61]: 0.5662
OR [62]: 0.5982
OR(R) [62]: 0.5982
Meta-analysis OR (rs13279522 allele G vs A (ref)): 0.62
Meta-analysis OR (rs13314266 allele G vs A (ref)): 0.51
Meta-analysis OR (rs13318232 allele G vs A (ref)): 0.52
Meta-analysis OR (rs16861467, allele A1 G (non-ref), A2 A (ref), endpoint/model not given): 0.49
Meta-analysis OR (rs17076974 allele A vs G (ref)): 1.40
Meta-analysis OR (rs17546598 allele A vs G (ref)): 1.71
Meta-analysis OR (rs17706237 allele G vs A (ref)): 1.69
Meta-analysis OR (rs17716275, allele A1 A (non-ref), A2 G (ref), endpoint/model not given): 2.03
Meta-analysis OR (rs72746987 allele A vs G (ref)): 0.40
